Test results from ChEMBL document CHEMBL1129518, “Synthesis and pharmacologic evaluation of 2-endo-amino-3-exo-isopropylbicyclo[2.2.1]heptane: a potent imidazoline1 receptor specific agent” (J Med Chem, 1996).

Key:
[1] = biological target: T1, Adrenergic receptor alpha-1 (Homo sapiens, UniProt P35348+P25100+P35368); assay: Binding affinity for human brain Alpha-1 adrenergic receptor
T1 sequence (P35348 whole entry): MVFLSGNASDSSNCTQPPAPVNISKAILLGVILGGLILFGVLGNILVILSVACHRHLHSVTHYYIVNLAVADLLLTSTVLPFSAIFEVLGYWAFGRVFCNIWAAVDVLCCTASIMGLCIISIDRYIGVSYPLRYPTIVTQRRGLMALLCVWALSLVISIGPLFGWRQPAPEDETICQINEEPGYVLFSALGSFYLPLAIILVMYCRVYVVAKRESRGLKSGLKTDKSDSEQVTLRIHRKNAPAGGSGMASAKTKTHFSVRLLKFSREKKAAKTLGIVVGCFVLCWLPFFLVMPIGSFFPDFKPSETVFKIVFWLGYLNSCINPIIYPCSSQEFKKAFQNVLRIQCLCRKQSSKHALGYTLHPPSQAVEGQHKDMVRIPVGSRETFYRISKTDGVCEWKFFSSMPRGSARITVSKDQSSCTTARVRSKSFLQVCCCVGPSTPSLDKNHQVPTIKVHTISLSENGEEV
T1 sequence (P25100 whole entry): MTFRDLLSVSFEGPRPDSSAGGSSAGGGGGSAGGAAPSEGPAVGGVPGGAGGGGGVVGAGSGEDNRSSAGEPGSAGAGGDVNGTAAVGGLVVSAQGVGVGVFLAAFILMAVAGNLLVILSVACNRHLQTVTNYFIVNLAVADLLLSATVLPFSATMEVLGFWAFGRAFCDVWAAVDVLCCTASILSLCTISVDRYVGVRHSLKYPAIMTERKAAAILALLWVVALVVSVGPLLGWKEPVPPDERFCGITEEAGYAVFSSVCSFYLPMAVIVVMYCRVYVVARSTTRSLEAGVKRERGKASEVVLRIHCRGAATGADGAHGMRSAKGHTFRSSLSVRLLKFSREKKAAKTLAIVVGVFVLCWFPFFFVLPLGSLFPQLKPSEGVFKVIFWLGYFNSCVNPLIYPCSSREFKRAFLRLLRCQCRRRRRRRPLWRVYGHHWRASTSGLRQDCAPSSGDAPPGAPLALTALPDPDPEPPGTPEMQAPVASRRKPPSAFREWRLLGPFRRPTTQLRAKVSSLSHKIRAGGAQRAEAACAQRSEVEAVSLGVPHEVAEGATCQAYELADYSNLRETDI
T1 sequence (P35368 whole entry): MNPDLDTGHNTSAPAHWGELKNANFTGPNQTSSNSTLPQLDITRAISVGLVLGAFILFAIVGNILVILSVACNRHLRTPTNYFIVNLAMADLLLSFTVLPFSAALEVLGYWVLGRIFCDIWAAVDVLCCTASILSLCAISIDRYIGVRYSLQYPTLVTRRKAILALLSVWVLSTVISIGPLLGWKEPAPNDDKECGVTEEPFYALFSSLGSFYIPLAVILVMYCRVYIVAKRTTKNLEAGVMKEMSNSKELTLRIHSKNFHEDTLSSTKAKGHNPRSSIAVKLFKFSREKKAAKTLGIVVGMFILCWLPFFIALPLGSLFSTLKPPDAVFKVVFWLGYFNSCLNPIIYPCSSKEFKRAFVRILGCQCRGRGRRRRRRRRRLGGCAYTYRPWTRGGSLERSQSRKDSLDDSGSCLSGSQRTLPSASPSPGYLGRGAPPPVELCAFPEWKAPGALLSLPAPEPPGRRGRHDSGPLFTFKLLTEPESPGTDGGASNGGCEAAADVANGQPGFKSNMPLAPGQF

[2] = biological target: T2, Alpha-2A adrenergic receptor (Homo sapiens, UniProt P08913); assay: Binding affinity for human Alpha-2A adrenergic receptor
T2 sequence (P08913 whole entry): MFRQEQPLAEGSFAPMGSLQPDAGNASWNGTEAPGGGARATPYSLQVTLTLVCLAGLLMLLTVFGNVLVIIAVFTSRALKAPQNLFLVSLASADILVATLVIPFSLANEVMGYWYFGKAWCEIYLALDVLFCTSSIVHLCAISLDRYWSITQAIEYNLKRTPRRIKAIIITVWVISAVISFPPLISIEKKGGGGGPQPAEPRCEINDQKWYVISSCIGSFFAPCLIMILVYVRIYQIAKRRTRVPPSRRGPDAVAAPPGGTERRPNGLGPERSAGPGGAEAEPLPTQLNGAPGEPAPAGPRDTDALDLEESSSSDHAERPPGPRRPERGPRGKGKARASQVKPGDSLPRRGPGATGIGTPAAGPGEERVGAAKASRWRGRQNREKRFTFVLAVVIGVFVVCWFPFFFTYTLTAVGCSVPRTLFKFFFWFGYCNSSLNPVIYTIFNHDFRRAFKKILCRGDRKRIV

[3] = biological target: T3, Alpha-2C adrenergic receptor (Homo sapiens, UniProt P18825); assay: Binding affinity for human Alpha-2C adrenergic receptor
T3 sequence (P18825 whole entry): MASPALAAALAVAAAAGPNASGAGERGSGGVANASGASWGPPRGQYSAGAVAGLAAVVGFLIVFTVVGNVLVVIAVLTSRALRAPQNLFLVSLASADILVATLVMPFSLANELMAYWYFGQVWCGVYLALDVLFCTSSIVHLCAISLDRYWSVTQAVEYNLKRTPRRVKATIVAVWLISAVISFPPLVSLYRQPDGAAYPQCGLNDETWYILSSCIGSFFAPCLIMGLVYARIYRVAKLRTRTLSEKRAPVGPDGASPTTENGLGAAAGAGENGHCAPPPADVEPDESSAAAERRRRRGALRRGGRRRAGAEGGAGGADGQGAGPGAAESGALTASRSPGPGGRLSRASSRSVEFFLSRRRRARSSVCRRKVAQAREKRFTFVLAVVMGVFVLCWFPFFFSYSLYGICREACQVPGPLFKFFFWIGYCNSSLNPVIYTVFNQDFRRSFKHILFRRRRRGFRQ

[4] = biological target: T4, Alpha-2B adrenergic receptor (Rattus norvegicus, UniProt P19328); assay: Binding affinity for rat Alpha-2B adrenergic receptor
T4 sequence (P19328 whole entry): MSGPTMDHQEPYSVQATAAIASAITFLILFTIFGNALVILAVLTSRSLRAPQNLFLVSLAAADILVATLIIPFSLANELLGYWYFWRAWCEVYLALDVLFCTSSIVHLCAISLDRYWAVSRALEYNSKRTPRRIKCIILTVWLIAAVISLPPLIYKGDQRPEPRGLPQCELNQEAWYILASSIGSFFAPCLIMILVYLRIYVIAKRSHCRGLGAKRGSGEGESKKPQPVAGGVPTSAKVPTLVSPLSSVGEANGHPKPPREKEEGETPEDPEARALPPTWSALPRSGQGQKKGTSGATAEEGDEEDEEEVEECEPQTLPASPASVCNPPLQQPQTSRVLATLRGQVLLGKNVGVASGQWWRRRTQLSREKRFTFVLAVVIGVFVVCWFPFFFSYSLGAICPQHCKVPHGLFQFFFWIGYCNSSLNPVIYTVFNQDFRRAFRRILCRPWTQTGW

Compound | Ki [1] [µM] | Ki [2] [µM] | Ki [3] [µM] | Ki [4] [µM]
CC(C)C1C2CCC(C2)C1N (stereo not given) | > 100 | > 20 | > 20 | > 20
COc1nc(C)nc(Cl)c1NC1=NCCN1 [MOXONIDINE] | > 30 |  |  | 
